Laboratory results from US11780823B2, “Indazole-3-carboxamides and their use as Wnt/β-catenin signaling pathway inhibitors” (BioSplice Therapeutics, Inc., priority 2011, dated 2023).
pIC50: −log10 of the molar value.

Test system: Wnt activity (wnt-responsive SP5 promoter luciferase reporter in SW480 cells)
Test: Wnt reporter screening assay: SP5 promoter-driven firefly luciferase in SW480 cells
Format: cell-based
Details: Homo sapiens; SW480 colon cancer cells with SP5 promoter luciferase reporter; half-log dilutions, ten micromolar top concentration; read 24-40 h after compound addition; normalized to DMSO; read-out: Wnt inhibition
Text: Another screening assay for Wnt activity is described as follows. Reporter cell lines can be generated by stably transducing cells of cancer cell lines (e.g., colon cancer) with a lentiviral construct that include a wnt-responsive promoter driving expression of the firefly luciferase gene.
Lentiviral constructs can be made in which the SP5 promoter, a promoter having eight TCF/LEF binding sites derived from the SP5 promoter, is linked upstream of the firefly luciferase gene. The lentiviral constructs can also include a hygromycin resistance gene as a selectable marker. The SP5 promoter construct can be used to transduce SW480 cells, a colon cancer cell line having a mutated APC gene that generates a truncated APC protein, leading to de-regulated accumulation of β-catenin.
Cultured SW480 cells bearing a reporter construct can be distributed at approximately 10,000 cells per well into 96 well or 384 well plates. Compounds from a small molecule compound library can then be added to the wells in half-log dilutions using a ten micromolar top concentration. A series of control wells for each cell type receive only buffer and compound solvent. Twenty-four to forty hours after the addition of compound, reporter activity for luciferase can be assayed, for example, by addition of the BrightGlo luminescence reagent (Promega) and the Victor3 plate reader (Perkin Elmer). Readings can be normalized to DMSO only treated cells, and normalized activities can then be used in the IC50 calculations.

Row | SMILES | pIC50
1 | O=C(Nc1ccc(-c2ccccc2)nc1)c1n[nH]c2ccc(-c3cncc(CN4CCCC4)c3)cc12 [Compound 50, N-(6-Phenylpyridin-3-yl)-5-(5-(pyrrolidin-1-ylmethyl)pyridin-3-yl)-1H-indazole-3-carboxamide] | 7.15
2 | CN(C)Cc1cncc(NC(=O)c2n[nH]c3ccc(-c4cncc(CN5CCCC5)c4)cc23)c1 [Compound 106, N-(5-((Dimethylamino)methyl)pyridin-3-yl)-5-(5-(pyrrolidin-1-ylmethyl)pyridin-3-yl)-1H-indazole-3-carboxamide] | 7.48
3 | O=C(Nc1ccc(N2CCNCC2)nc1)c1n[nH]c2ccc(-c3cncc(CN4CCCCC4)c3)cc12 [Compound 177, N-(6-(Piperazin-1-yl)pyridin-3-yl)-5-(5-(piperidin-1-ylmethyl)pyridin-3-yl)-1H-indazole-3-carboxamide] | 6.74
4 | O=C(Nc1cccnc1)c1n[nH]c2ccc(-c3cncc(C(F)(F)F)c3)cc12 [Compound 16, N-(pyridin-3-yl)-5-(5-(trifluoromethyl)pyridin-3-yl)-1H-indazole-3-carboxamide] | ≤ 5.00
5 | Cn1nc(NC(=O)c2n[nH]c3ccc(-c4cccnc4)cc23)cc1C(F)(F)F [Compound 37, N-(1-Methyl-5-(trifluoromethyl)-1H-pyrazol-3-yl)-5-(pyridin-3-yl)-1H-indazole-3-carboxamide] | 5.95
6 | C[C@@H]1CCC[C@H](C)N1Cc1cncc(-c2ccc3[nH]nc(C(=O)Nc4cccnc4)c3c2)c1 [Compound 84, 5-(5-(((2R,6S)-2,6-Dimethylpiperidin-1-yl)methyl)pyridin-3-yl)-N-(pyridin-3-yl)-1H-indazole-3-carboxamide] | 6.05 to 6.09
7 | Cc1cc(NC(=O)c2n[nH]c3ccc(-c4cncc(CN5CCCCC5)c4)cc23)cnc1N1CCCC1 [Compound 172, N-(5-Methyl-6-(pyrrolidin-1-yl)pyridin-3-yl)-5-(5-(piperidin-1-ylmethyl)pyridin-3-yl)-1H-indazole-3-carboxamide] | 7.22
8 | CN1CCN(Cc2cncc(-c3ccc4[nH]nc(C(=O)Nc5cccnc5)c4c3)c2)CC1 [Compound 61, 5-(5-((4-Methylpiperazin-1-yl)methyl)pyridin-3-yl)-N-(pyridin-3-yl)-1H-indazole-3-carboxamide] | 6.62
9 | CN(C)C(=O)Nc1cncc(-c2ccc3[nH]nc(C(=O)Nc4cccnc4)c3c2)c1 [Compound 1, 5-(5-(3,3-dimethylureido)pyridin-3-yl)-N-(pyridin-3-yl)-1H-indazole-3-carboxamide] | 6.76
10 | O=C(Nc1ccc(C(F)(F)F)nc1)c1n[nH]c2ccc(-c3cncc(F)c3)cc12 [Compound 2, 5-(5-fluoropyridin-3-yl)-N-(6-(trifluoromethyl)pyridin-3-yl)-1H-indazole-3-carboxamide] | 5.30
11 | O=C(NC1CCCC1)c1ccc(NC(=O)c2n[nH]c3ccc(-c4cncc(CN5CCCCC5)c4)cc23)cn1 [Compound 184, N-(6-(Cyclopentylcarbamoyl)pyridin-3-yl)-5-(5-(piperidin-1-ylmethyl)pyridin-3-yl)-1H-indazole-3-carboxamide] | 7.40
12 | O=C(Nc1ccc(N2CCC2)nc1)c1n[nH]c2ccc(-c3cncc(CN4CCCCC4)c3)cc12 [Compound 174, N-(6-(Azetidin-1-yl)pyridin-3-yl)-5-(5-(piperidin-1-ylmethyl)pyridin-3-yl)-1H-indazole-3-carboxamide] | 7.32
13 | O=C(NC1CCCCC1)c1n[nH]c2ccc(-c3cncc(CN4CCCCC4)c3)cc12 [Compound 77, N-Cyclohexyl-5-(5-(piperidin-1-ylmethyl)pyridin-3-yl)-1H-indazole-3-carboxamide] | 5.58
14 | O=C(Nc1ccnnc1)c1n[nH]c2ccc(-c3cccnc3)cc12 [Compound 14, N-(Pyridazin-4-yl)-5-(pyridin-3-yl)-1H-indazole-3-carboxamide] | 6.97
15 | O=C(Nc1cccnc1)c1n[nH]c2ccc(-c3ccc(N4CCCC4)nc3)cc12 [Compound 51, N-(Pyridin-3-yl)-5-(6-(pyrrolidin-1-yl)pyridin-3-yl)-1H-indazole-3-carboxamide] | 7.59
16 | O=C(Nc1cnccc1NC(=O)C1CC1)c1n[nH]c2ccc(-c3cccnc3)cc12 [Compound 58, N-(4-(Cyclopropanecarboxamido)pyridin-3-yl)-5-(pyridin-3-yl)-1H-indazole-3-carboxamide] | 7.15
17 | O=C(Nc1ccc2c(c1)OCCO2)c1n[nH]c2ccc(-c3cncc(CN4CCCCC4)c3)cc12 [Compound 79, N-(2,3-Dihydrobenzo[b][1,4]dioxin-6-yl)-5-(5-(piperidin-1-ylmethyl)pyridin-3-yl)-1H-indazole-3-carboxamide] | 6.91

Row | SMILES | pIC50
18 | O=C(Nc1cncc(-c2cccc(F)c2)c1)c1n[nH]c2ccc(-c3cccnc3)cc12 [Compound 9, N-(5-(3-Fluorophenyl)pyridin-3-yl)-5-(pyridin-3-yl)-1H-indazole-3-carboxamide] | ≤ 5.00
19 | O=C(Nc1ccncc1)c1n[nH]c2ccc(-c3cccnc3)cc12 [Compound 6, 5-(Pyridin-3-yl)-N-(pyridin-4-yl)-1H-indazole-3-carboxamide] | 6.57
20 | O=C(Nc1ccc(C(=O)N2CCCC2)nc1)c1n[nH]c2ccc(-c3cncc(CN4CCCCC4)c3)cc12 [Compound 179, 5-(5-(Piperidin-1-ylmethyl)pyridin-3-yl)-N-(6-(pyrrolidine-1-carbonyl)pyridin-3-yl)-1H-indazole-3-carboxamide] | 7.52
21 | O=C(Nc1cccc(-c2cccc(F)c2)c1)c1n[nH]c2ccc(-c3cccnc3)cc12 [Compound 5, N-(3′-Fluorobiphenyl-3-yl)-5-(pyridin-3-yl)-1H-indazole-3-carboxamide] | ≤ 5.00
22 | O=C(Nc1cccnc1)c1n[nH]c2ccc(-c3cncc(Oc4ccccc4)c3)cc12 [Compound 56, 5-(5-Phenoxypyridin-3-yl)-N-(pyridin-3-yl)-1H-indazole-3-carboxamide] | 6.80
23 | O=C(Nc1cccnc1)c1n[nH]c2ccc(-c3cncc(CN4CCOCC4)c3)cc12 [Compound 64, 5-(5-(Morpholinomethyl)pyridin-3-yl)-N-(pyridin-3-yl)-1H-indazole-3-carboxamide] | 8.22
24 | O=C(Nc1ccc(N2CCCC2)nc1)c1n[nH]c2ccc(-c3cncc(CN4CCC(F)(F)C4)c3)cc12 [Compound 183, 5-(5-((3,3-Difluoropyrrolidin-1-yl)methyl)pyridin-3-yl)-N-(6-(pyrrolidin-1-yl)pyridin-3-yl)-1H-indazole-3-carboxamide] | 7.31
25 | O=C(Nc1cccnc1)c1n[nH]c2ccc(-c3cccc(CN4CCCC4)c3)cc12 [Compound 49, N-(Pyridin-3-yl)-5-(3-(pyrrolidin-1-ylmethyl)phenyl)-1H-indazole-3-carboxamide] | 7.24
26 | O=C(Nc1cnccn1)c1n[nH]c2ccc(-c3cncc(CN4CCCCC4)c3)cc12 [Compound 81, 5-(5-(Piperidin-1-ylmethyl)pyridin-3-yl)-N-(pyrazin-2-yl)-1H-indazole-3-carboxamide] | 6.85 to 7.11
27 | CN1CCN(c2ccc(NC(=O)c3n[nH]c4ccc(-c5cncc(NC(=O)C6CC6)c5)cc34)cn2)CC1 [Compound 38, 5-(5-(Cyclopropanecarboxamido)pyridin-3-yl)-N-(6-(4-methylpiperazin-1-yl)pyridin-3-yl)-1H-indazole-3-carboxamide] | 6.92
28 | O=C(Nc1ccc(C(F)(F)F)nc1)c1n[nH]c2ccc(-c3cncc(NC(=O)C4CC4)c3)cc12 [Compound 39, 5-(5-(Cyclopropanecarboxamido)pyridin-3-yl)-N-(6-(trifluoromethyl)pyridin-3-yl)-1H-indazole-3-carboxamide] | 7.19
29 | O=C(Nc1cccnc1)c1n[nH]c2ccc(-c3cncc(N4CCCC4)c3)cc12 [Compound 189, N-(Pyridin-3-yl)-5-(5-(pyrrolidin-1-yl)pyridin-3-yl)-1H-indazole-3-carboxamide] | 7.07
30 | O=C(Nc1ccc(N2CCCC2)nc1)c1n[nH]c2ccc(-c3cncc(CN4CCCCC4)c3)cc12 [Compound 71, 5-(5-(Piperidin-1-ylmethyl)pyridin-3-yl)-N-(6-(pyrrolidin-1-yl)pyridin-3-yl)-1H-indazole-3-carboxamide] | 7.60
31 | O=C(Nc1cccnc1)c1n[nH]c2ccc(-c3cncc(CN4CCCCC4)c3)cc12 [Compound 46, 5-(5-(Piperidin-1-ylmethyl)pyridin-3-yl)-N-(pyridin-3-yl)-1H-indazole-3-carboxamide] | 7.82
32 | O=C(Nc1cnccc1C(F)(F)F)c1n[nH]c2ccc(-c3cncc(CN4CCCC4)c3)cc12 [Compound 57, 5-(5-(Pyrrolidin-1-ylmethyl)pyridin-3-yl)-N-(4-(trifluoromethyl)pyridin-3-yl)-1H-indazole-3-carboxamide] | ≤ 5.00
33 | O=C(Nc1ccc(-c2cccc(F)c2)nc1)c1n[nH]c2ccc(-c3cncc(CN4CCCCC4)c3)cc12 [Compound 72, N-(6-(3-Fluorophenyl)pyridin-3-yl)-5-(5-(piperidin-1-ylmethyl)pyridin-3-yl)-1H-indazole-3-carboxamide] | 6.67
34 | O=C(Nc1cccnc1)c1n[nH]c2ccc(-c3cncc(CN4CCCC4)c3)cc12 [Compound 43, N-(Pyridin-3-yl)-5-(5-(pyrrolidin-1-ylmethyl)pyridin-3-yl)-1H-indazole-3-carboxamide] | 7.20
